According to patent US20240197890A1, “FLAVONE DERIVATIVES AND USES IN TARGETING CK2-MEDIATED DISEASES AND CONDITIONS” (Salk Institute for Biological Studies, priority 2020, published 2024):

Experiments:
LC3-II = LC3-II in AD patient-derived induced neurons; assay type: cell-based, human; conditions: 24 h
Experimental: Western blotting. For drug treatment assays, cells were treated with vehicle (DMSO) or 20 μM compound and stimulated with IL1-B 10 ng/mL for 1 h, 6 h, or 24 h. Cells were dissociated with 1:1 Accutase:papain for 3 min at rt, pelleted for 5 min at 800 g, and washed twice with cold DPBS. Pellets were lysed with RIPA buffer (Sigma R0278) supplemented with Halt protease inhibitor cocktail (Thermo Fisher 78445) and clarified by centrifugation (16,000 g, 10 min, 4° C.). Protein concentration was determined by BCA assay (Thermo Fisher). Proteins were denatured in 1×LDS Buffer and 2.5% beta-mercaptoethanol (X) for 10 min at 70° C., separated on Bolt 4-12% Bis-Tris Plus polyacrylamide gels (Thermo Fisher), transferred to PVDF membranes using the iBlot 2 Dry Blotting System, and blocked with 0.1% casein-PBS (Bio-Rad) for 1 h at room temperature. The blots were incubated with primary antibodies overnight at 4° C. in PBS containing 0.1% casein and 0.2% Tween-20. […] The blots were imaged using the Odyssey CLx imaging system and blots were analyzed on the ImageStudio software (LI-COR).

[1] = tested on: IL6 and IL8 expression in astrocytes; assay: Activation assay, ddPCR of cytokine expression in IL1-β-activated astrocytes; assay type: cell-based, human; conditions: astrocytes and microglia; FIG. 1D, FIG. 2C
Experimental: Activation assays and ddPCR. HCA or H1-derived astrocytes were treated with vehicle (DMSO) or 20 μM compound and stimulated with IL1-B 10 ng/mL for 5 h. Cells were scraped into RNA-Bee and total RNA was purified using the Direct-zol RNA kit (Zymo Research). RNA concentration was measured using Nanodrop and RNA was reverse transcribed into cDNA using the High Capacity cDNA Reverse Transcriptase Kit (Applied Biosystems). Reaction mixes consisting of TaqMan FAM probe (IL6, IL8, CSNK2A1, CSNK2A2), control TaqMan ACTB-VIC probe (TFS 4326315E), ddPCR Supermix for Probes (Bio-Rad 186-3024), and cDNA were formed into oil droplets using the QX200 Droplet Generator. After amplification (Bio-Rad C1000 Touch Thermal Cycler) according to manufacturer's instructions, the plate was read in the QX200 Droplet Reader.

AKT pS129 = AKT pS129 levels in IL1β-stimulated primary astrocytes; assay type: cell-based; conditions: IL1-β for 5 h
Excerpt: AKT pS129 is a known direct CK2 substrate.

AKT pS473 = assay: Immunofluorescence of AKT pS473 in IL1β-stimulated primary astrocytes; assay type: cell-based; conditions: IL1-β for 5 h
Experimental: Immunotluorescence. […] After treatment, cells were fixed with 4% paraformaldehyde solution for 20 min at room temperature and washed 3× with DPBS for 10 min each. The cells were permeabilized using 5% horse serum and 10% Triton X in DPBS for 15 min at room temperature and blocked with 5% horse serum in PBS for 30 min at room temperature. Cells were incubated with primary antibodies in blocking buffer either overnight at 4° C. or for 2 hours at room temperature. After incubation, cells were washed 3× with PBS, blocked using 5% horse serum in PBS for 30 min at room temperature, and incubated with Cy3 red-labeled or AF488 green-labeled secondary antibodies diluted in blocking buffer for 1 hour at room temperature. The cells were washed once with PBS for 10 min, then counter-stained with DAPI. The cells were washed 3× with PBS and mounted with glass coverslips and Immu-Mount solution. Images were obtained with the Zeiss fluorescent microscope. […]

## COc1cc(-c2cc(=O)c3c(O)cc(O)cc3o2)ccc1O [CHR, chrysoeriol]
LC3-II
  LC3-II (marker of autophagy/mitophagy): increased
[1]
  dose dependence of anti-inflammatory effects: dose-dependent
AKT pS129
  AKT pS129 levels: reduced
AKT pS473
  AKT pS473 levels: reduced
